{"source": "patent US9023857B2", "about": "“Substituted 6-(2-aminobenzylamino)purine derivatives, their use as medicaments and preparations containing these compounds” (Univerzita Palackeho V Olomouci, priority 2009, dated 2015)", "key": {"[1]": {"tested_on": "p21^WAF1 protein in MCF-7 cells", "experiment": "Induction of p21^WAF1 protein in MCF-7 cells (immunoblotting)", "assay_type": "cell-based, human", "protocol": "(§1) (a) DO-1, DO-2 and 1801 monoclonal antibodies recognise the N-terminal region of p53 protein, monoclonal antibodies DO-11 and DO-12 recognise different epitopes in the core domain of p53 protein, monoclonal antibodies Bp53-10 and Pab421 recognise the C-terminal region of p53 protein. (b) Monoclonal antibody 118 recognises p21^WAF1.\nFor direct immunoblotting, total cellular protein lysates were prepared by harvesting cells in hot Laemmli electrophoresis sample buffer. Proteins were then separated by SDS-polyacrylamide gel electrophoresis (SDS-PAGE) on 10% gel and transferred onto a nitrocellulose membrane in Bio.Rad Mini Trans-Blott Electrophoretic Transfer Cell for 2 hrs at 4° C. applying 150 mA in transfer buffer ([…], 190 mM glycine and 20% methanol). Prestained molecular weight markers (Bio-Rad) were run in parallel. The blotted membranes were blocked in 5% milk and 0.1% Tween 20 in PBS for 2 hrs and probed overnight with monoclonal antibodies. After washing 3 times in PBS plus 0.1% Tween 20, peroxidase conjugated rabbit anti-mouse immunoglobulin antiserum (Dako, Denmark) diluted 1:1000 was used as the secondary antibody. To visualise peroxidase activity, ECL reagents from […] were used according to the manufacturer instructions.\nMCF7-DDp53 cell line was derived from MCF-7 parental cell line by stable […] with plasmid pCMVneonDDp53 coding for dominant negative truncated mouse p53 protein including amino acid residues 1-14 and 302-390 under the control of at the CMV promoter. The control cell line MCF-7neo was derived by transfecting MCF-7 cells with pCMVneo vector. Transfections were performed using the Effectene transfection reagent (QIAGEN, Germany) as recommended by the supplier. Stable transfectants were selected at 2 mg/ml G418 sulphate (Life Technologies). The expression of Ddp53 miniprotein in MCF-7Ddp53 cell line has been examined by immunoblotting with Bp53-10 monoclonal antibody. Independently isolated MCF-7Dp53 clones 9, 12 and 14 expressing high levels of Ddp53 miniprotein and MCF-7-neo clones 3, 4 and 7 were used. […]"}, "[2]": {"tested_on": "p53 protein in osteosarcoma cell line HOS (mut p53)", "experiment": "p53 protein expression in HOS cells (immunoblotting)", "assay_type": "cell-based, human", "details": "HOS (mutant p53), 5 μM, 6, 12 and 24 hrs", "protocol": "as §1\nFor direct immunoblotting, total cellular protein lysates were prepared by harvesting cells in hot Laemmli electrophoresis sample buffer. Proteins were then separated by SDS-polyacrylamide gel electrophoresis (SDS-PAGE) on 10% gel and transferred onto a nitrocellulose membrane in Bio.Rad Mini Trans-Blott Electrophoretic Transfer Cell for 2 hrs at 4° C. applying 150 mA in transfer buffer ([…], 190 mM glycine and 20% methanol). Prestained molecular weight markers (Bio-Rad) were run in parallel. […]\nFirst, we determined appropriate concentration of 103 and 105 for our experiments. The MCF-7 (wt p53) cells were treated for 12 hrs with increasing concentrations of 105 ranging from 1 to 100 μM and analysed for p53 protein expression using monoclonal antibody DO-1 (FIG. 3A). […] We analysed the expression of p53 protein in MCF-7 (wt p53), BT549 (mut p53) and BT474 (mut p53) breast cancer cell lines, in HT29 (mut p53) colorectal cancer cell line and in ostaosarcoma cell line HOS (mut p53). […]"}, "[3]": {"tested_on": "MV", "experiment": "MV syncytium reduction assay in B95a cells", "assay_type": "cell-based, Measles virus wildtype strain WTFb"}, "[4]": {"tested_on": "IV", "assay_type": "cell-based, Influenza Virus H1N1 strain A/PR/8/34", "details": "MDCK cells"}, "[5]": {"tested_on": "SV40 large T-antigen", "assay_type": "cell-based"}}, "data": [{"compound": "CCC(CO)Nc1nc(NCc2ccccc2N)c2ncn(C(C)C)c2n1", "note": "(stereo not shown) [Compound 105, 2-({6-[(2-aminobenzyl)amino]-9-isopropyl-9H-purin-2-yl}amino)butan-1-ol]", "values": [{"measurement": "p21^WAF1 level", "setting": "[1]; MCF7 cells treated for 24 h, immunoblot (FIG. 2)", "result": "Induction"}, {"measurement": "p21^WAF1 induction", "setting": "[1]; MCF-7Ddp53 clones (dominant-negative Ddp53 miniprotein)", "result": "no p21^WAF1 induction"}, {"measurement": "time at which enhanced level of p21^WAF1 protein was observed", "setting": "[1]; MCF-7 cells", "result": 12, "unit": "h"}, {"measurement": "induction of p53", "setting": "[2]", "result": "No induction"}, {"measurement": "inhibition of virus replication (in words)", "setting": "[3]", "result": "ineffective"}, {"measurement": "inhibition of virus replication (in words)", "setting": "[4]", "result": "ineffective"}, {"measurement": "level of large T-antigen", "setting": "[5]", "result": "reduced level"}]}]}
